The target of this assay is T1, human MRGPRX2 (Homo sapiens, UniProt Q96LB1).
T1 sequence (Q96LB1 1-330): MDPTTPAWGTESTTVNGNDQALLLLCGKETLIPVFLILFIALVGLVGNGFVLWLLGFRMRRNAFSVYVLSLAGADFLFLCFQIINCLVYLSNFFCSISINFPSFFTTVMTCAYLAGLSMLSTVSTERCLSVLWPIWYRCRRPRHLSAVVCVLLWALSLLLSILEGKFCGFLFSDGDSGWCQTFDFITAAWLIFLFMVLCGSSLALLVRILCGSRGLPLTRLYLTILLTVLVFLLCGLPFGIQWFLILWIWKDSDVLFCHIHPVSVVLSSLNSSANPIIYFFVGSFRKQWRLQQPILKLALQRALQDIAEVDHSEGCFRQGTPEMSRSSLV
Kind of assay: Ca2+ mobilization assay (FLIPR TETRA): inhibition of Cortistatin-14 mediated MRGPRX2 activation.

12 molecules from patent US11976057B2, “MrgX2 antagonists” (GlaxoSmithKline Intellectual Property Development Limited, priority 2020, dated 2024) can be followed below.

The molecule `Cc1cccc(-c2ccc(NC(=O)[C@H](C)N3CCC(F)(F)[C@@H](c4ccc(=O)[nH]c4)C3)nc2)n1` [Example 11, (S)-2-((S)-4,4-difluoro-3-(6-oxo-1,6-dihydropyridin-3-yl)piperidin-1-yl)-N-(6-methyl-[2,3′-bipyridin]-6′-yl)propanamide] registered an IC50 of 100 to 3160 nM.
Consider `C[C@@H](C(=O)Nc1ccc(Cl)cn1)N1CCC[C@@H](c2cc[n+]([O-])cc2)C1` (single isomer, unassigned) [Example 180], for which the half-inhibitory concentration (IC50) lay in the range of 3160 to 31600 nM.
The molecule `C[C@@H](C(=O)Nc1cnc(Oc2ccc(F)cc2F)cn1)N1CCC(F)(F)[C@@H](c2c[nH]c(=O)c(CN3CCOCC3)c2)C1` [Example 229, (S)-2-((S)-4,4-difluoro-3-(5-(morpholinomethyl)-6-oxo-1,6-dihydropyridin-3-yl)piperidin-1-yl)-N-(5-(2,4-difluorophenoxy)pyrazin-2-yl)propanamide] came in with an IC50 of at most 10 nM.
For `C[C@@H](C(=O)Nc1ccc(Oc2ccc(F)cn2)cn1)N1CCC(F)(F)[C@@H](c2c[nH]c(=O)c(CO)c2)C1` [Example 157, (S)-2-((S)-4,4-difluoro-3-(5-(hydroxymethyl)-6-oxo-1,6-dihydropyridin-3-yl)piperidin-1-yl)-N-(5-((5-fluoropyridin-2-yl)oxy)pyridin-2-yl)propanamide], the IC50 was 10 to 100 nM.
Molecule `C[C@@H](C(=O)Nc1ccc(Oc2ncc(F)cc2F)cn1)N1CCC(F)(F)[C@@H](c2ccc(=O)[nH]c2)C1` [Example 66, (S)-2-((S)-4,4-difluoro-3-(6-oxo-1,6-dihydropyridin-3-yl)piperidin-1-yl)-N-(5-((3,5-difluoropyridin-2-yl)oxy)pyridin-2-yl)propanamide] registered an IC50 of at most 10 nM.
`C[C@@H](C(=O)Nc1ccc(C(=O)OC2CCCC2)cn1)N1CCC(F)(F)[C@@H](c2ccc(=O)[nH]c2)C1` [Example 46, cyclopentyl 6-((S)-2-((S)-4,4-difluoro-3-(6-oxo-1,6-dihydropyridin-3-yl)piperidin-1-yl)propanamido) nicotinate] registered a concentration for half-maximal inhibition (IC50) of 100 to 3160 nM.
With `CC(C(=O)Nc1ccc(C(O)c2ccc(F)cc2)cn1)N1CCC(F)(F)[C@@H](c2cc[n+]([O-])cc2)C1` (stereo partly drawn) [Example 129, 4-((3S)-4,4-difluoro-1-(1-((5-((4-fluorophenyl) (hydroxy)methyl)pyridin-2-yl)amino)-1-oxopropan-2-yl)piperidin-3-yl)pyridine 1-oxide], the IC50 lay within 3160 to 31600 nM.
In turn, `CC(=O)NCc1cc(C2CN(C(C)C(=O)Nc3ccc(F)cn3)CCC2(F)F)cc[n+]1[O-]` (stereo not drawn) [Example 263] returned a concentration for half-maximal inhibition (IC50) of 100 to 3160 nM.
Molecule `C[C@@H](C(=O)Nc1ccc(/C=C\C2CC2)cn1)N1CCC(F)(F)[C@@H](c2ccc(=O)[nH]c2)C1` [Example 80, (S)-N-(5-((Z)-2-cyclopropylvinyl)pyridin-2-yl)-2-((S)-4,4-difluoro-3-(6-oxo-1,6-dihydropyridin-3-yl)piperidin-1-yl)propanamide] returned an IC50 of 10 to 100 nM.
Regarding `CC(C(=O)Nc1ccc(CC2CCCC2)cn1)N1CCC(F)(F)[C@@H](c2ccc(=O)[nH]c2)C1` (stereo partly drawn) [Example 33, N-(5-(cyclopentyl-methyl)pyridin-2-yl)-2-((S)-4,4-difluoro-3-(6-oxo-1,6-dihydropyridin-3-yl)piperidin-1-yl)propanamide], the IC50 lay in the range of 100 to 3160 nM.
The figure for `C[C@@H](C(=O)Nc1cnc(Oc2ccc(F)cc2F)cn1)[C@H]1CCC[C@@H](c2ccc(=O)[nH]c2)C1` [Example 286, (R)-N-(5-(2,4-difluorophenoxy)pyrazin-2-yl)-2-((1S,3R)-3-(6-oxo-1,6-dihydropyridin-3-yl)cyclohexyl)propanamide] is at most 10 nM; for `C[C@@H](C(=O)Nc1ccc(Oc2ccc(F)cc2)cn1)N1CCC(F)(F)[C@@H](c2cc[n+]([O-])c(CO)c2)C1` [Example 254, 4-((S)-4,4-difluoro-1-((S)-1-((5-(4-fluorophenoxy)pyridin-2-yl)amino)-1-oxopropan-2-yl)piperidin-3-yl)-2-(hydroxymethyl)pyridine 1-oxide] it is at most 10 nM.
